Molecular target: T1, IDE (Homo sapiens, UniProt P14735)
T1 construct: made in house; host or cells: E. coli BL21
T1 sequence (P14735 1-1019): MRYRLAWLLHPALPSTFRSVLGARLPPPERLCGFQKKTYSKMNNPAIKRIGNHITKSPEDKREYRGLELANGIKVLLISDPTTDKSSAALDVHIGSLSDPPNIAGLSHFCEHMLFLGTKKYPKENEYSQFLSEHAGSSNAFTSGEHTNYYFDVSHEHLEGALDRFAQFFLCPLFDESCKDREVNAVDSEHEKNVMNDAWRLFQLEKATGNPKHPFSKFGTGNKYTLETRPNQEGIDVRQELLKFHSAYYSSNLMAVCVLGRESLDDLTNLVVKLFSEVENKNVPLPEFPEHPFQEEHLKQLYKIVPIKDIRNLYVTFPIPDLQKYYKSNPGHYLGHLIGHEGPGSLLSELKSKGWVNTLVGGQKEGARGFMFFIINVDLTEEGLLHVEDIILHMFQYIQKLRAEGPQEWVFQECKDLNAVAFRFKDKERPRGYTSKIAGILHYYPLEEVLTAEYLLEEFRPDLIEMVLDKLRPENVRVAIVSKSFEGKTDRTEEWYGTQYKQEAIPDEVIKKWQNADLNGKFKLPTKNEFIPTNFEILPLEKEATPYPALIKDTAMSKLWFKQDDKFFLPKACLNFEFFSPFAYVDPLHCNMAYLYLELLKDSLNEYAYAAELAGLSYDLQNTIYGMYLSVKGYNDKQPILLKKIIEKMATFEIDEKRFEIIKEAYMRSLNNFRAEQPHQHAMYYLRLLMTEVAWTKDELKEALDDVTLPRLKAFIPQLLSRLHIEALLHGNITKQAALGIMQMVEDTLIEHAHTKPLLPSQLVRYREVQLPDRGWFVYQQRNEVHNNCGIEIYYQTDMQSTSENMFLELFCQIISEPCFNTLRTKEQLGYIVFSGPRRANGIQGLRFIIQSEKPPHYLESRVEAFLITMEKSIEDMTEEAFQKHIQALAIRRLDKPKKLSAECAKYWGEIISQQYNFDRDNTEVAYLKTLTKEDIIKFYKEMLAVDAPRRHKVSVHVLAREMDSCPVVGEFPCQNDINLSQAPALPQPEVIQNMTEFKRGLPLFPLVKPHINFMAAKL
Test: Enzymatic competition assay with bradykinin
Assay type: biochemical
Details: bradykinin 2.1, 4.2 and 8.4 mM; varying D10 (0–50 µM)
Excerpt: Since D10 has been found as the strongest activator of IDE towards the proteolysis of insulin, we analyzed the binding site of the compound D10 for the further analysis. According to the computational results, D10 binds to Gln363 at the IDE exosite and His332 (Fig. 1D). We carried out site-directed mutagenesis by replacing these amino acids into Ala in order to verify that D10 indeed binds to this region via these amino acids. We first mutated Gln363 to Ala and then expressed and purified mutant protein through nickel resin. The effect of D10 on the proteolytic activity of mutant IDE (Gln363Ala) was measured towards FITC-insulin-mAb degradation. […] The activation was about 49-fold in the presence of D10 with wild type IDE (Fig. 2B). Although mutant IDE activity was less responsive to D10 compound compared to wild type IDE, it appeared as if D10 were interacting with IDE through […] and could enhance the activity of mutant IDE. Therefore, we generated a double mutant IDE (Gln363Ala, His332Ala) in order to eliminate the binding of D10 to the exosite region completely. […]
The effect of the bradykinin on the clearance of insulin was measured in the presence of compound D10. […] The fluorescence increase was monitored by using Fluoroskan Ascent FL microplate reader (Thermo).

SMILES: Cc1nn(-c2ccccc2)c2nc(-c3cccc([N+](=O)[O-])c3)n3c4ccccc4nc3c2c1=O [Compound D10]
- decrease of insulin degradation in presence of compound when bradykinin is added: about 50%

Source: PMC3280214, “Structure Based Discovery of Small Molecules to Regulate the Activity of Human Insulin Degrading Enzyme” (PLoS ONE, 2012)
